According to patent US20100063085A1, “METHOD OF TREATING LEARNING IMPAIRMENT IN DOWN'S SYNDROME SUBJECTS” (University Court of The University of Dundee, priority 2008, published 2010):
Like-named read-outs stand apart in the source and are kept apart here.

Experiments:
Format in all cases: biochemical
SGK = biological target: T1, SGK (Homo sapiens, UniProt O00141); experiment: SGK 33P kinase assay; settings: read-out: SGK activity as percentage of control without inhibitor
T1 sequence (O00141 1-431): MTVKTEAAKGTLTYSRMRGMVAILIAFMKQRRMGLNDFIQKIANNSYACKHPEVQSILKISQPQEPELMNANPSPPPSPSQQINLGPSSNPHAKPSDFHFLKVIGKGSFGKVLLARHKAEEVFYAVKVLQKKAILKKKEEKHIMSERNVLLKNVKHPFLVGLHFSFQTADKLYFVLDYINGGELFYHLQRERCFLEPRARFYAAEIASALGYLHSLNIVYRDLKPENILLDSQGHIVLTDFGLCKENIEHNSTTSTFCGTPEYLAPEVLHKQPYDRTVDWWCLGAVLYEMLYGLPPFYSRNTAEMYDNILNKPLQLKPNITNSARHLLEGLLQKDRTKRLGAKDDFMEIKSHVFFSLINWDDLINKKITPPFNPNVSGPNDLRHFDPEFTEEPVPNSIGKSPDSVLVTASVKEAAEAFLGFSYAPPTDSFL
Procedure: (§1) All assays (25.5 μl) were carried out at room temperature (21° C.) and were linear with respect to time and enzyme concentrations under the conditions used. Assays were performed for 30 minutes except assays for LCK and PKB which were performed for 15 minutes using Multidrop Micro reagent dispensers (Thermo Electron Corporation, Waltham, Mass. 02454, USA) in a 96-well format. The concentration of […] [γ-^33P] ATP (800 cpm/pmol) in the assays was one of three concentrations (5, 20 or 50 μM) in order to be at or below Km for ATP for the enzyme. Assays were initiated with MgATP and stopped by addition of 5 μl of 0.5M orthophosphoric acid. Assays were then harvested onto P81 filterplates using a unifilter harvester (PerkinElmer, Boston, Mass. 02118, USA), with a wash buffer of 50 mM orthophosphoric acid. Filterplates were then air dried overnight. 10 μl of Microscint O was added per well prior to counting for radioactivity.
(§2) MKK1, JNK/SAPK1c, SAPK2a/p38, SAPK2b/p38β2, SAPK3/p38γ, SAPK4/p38δ, MAPK2/ERK2, MAPKAP-K1β, MAPKAP-K2, MSK1, PRAK, PKA, PKCα, PDK1, SGK, p70S6K, GSK3β, ROCK-II, PRK2, AMPK, CHK1, CHK2, CK2, PHK, LCK, were assayed according to Davies et al., (Davies, S. P., Reddy, H., Caivano, M. and Cohen, P. Biochem. J. 351, 95-105, 2000.
(§3) CSK and CDK2/cyclinA, were assayed according to Bain et al. (Bain J, McLauchlan H, Elliott M, Cohen P. Biochem J. 371, 199-204, 2003., except that ATP concentrations were either 5, 20 or 50 micromolar so that they were at or below the Km for ATP. The ATP concentrations used were as follows, 5 μM for assays of MKK1, SAPK3, SAPK4, GSK3β, PRK2 CK2 20 μm for assays of JNK, SAPK2β, MAPKAP-K2, MSK1, PRAK, PKA, […], PDK1, SGK, p70S6K, ROCK-II, CHK1, CHK2, CSK, CDK2, and 50 μM for assays of SAPK2a, MAPK2/ERK2, AMPK, LCK, PHK and MAPKAP-K1β.

PIM2 = PIM2 (Homo sapiens, UniProt Q9P1W9); experiment: PIM2 33P kinase assay; settings: read-out: PIM2 activity as percentage of control without inhibitor
Procedure: as §1
(§4) The following kinases were assayed against the substrates indicated. Aurora B was assayed against the substrate peptide […] (300 μM), ERK8 and MST-2 were both assayed against MBP (0.33 mg/ml). IKKβ was assayed against the substrate peptide […] (300 μM), JNK3 was assayed against 3 μM ATF2[19-96]. MAPKAP-K3 and PKD1 were both assayed against […] (30 μM), MARK3 was assayed against CHKtide ([…]) substrate peptide (300 μM). MNK1 and MNK2 were both assayed against eIF4E protein (0.5 mg/ml). NEK7 was assayed against […] (300 μM), PIM2 was assayed against […] (300 μM), ΔPH PKBβ-S474D was assayed against Crosstide (30 μM), PLK1 was assayed against […] (300 μM). PRK2 was assayed against Long S6 peptide, […] (30 μM), RSK2 was assayed against […] (30 μM), SRC was assayed against cdc2 peptide, […], (300 μM) and SRPK1 was assayed against peptide […] (300 μM). All enzymes were diluted in 50 mM Tris/HCl pH 7.5, 0.1 mM EGTA, 1 mg/ml BSA, 0.1% β-mercaptoethanol buffer and assayed in an incubation containing 50 mM Tris/HCl pH7.5, 0.1 mM EGTA, 0.1% β-mercaptoethanol, CAMK-1 (5-20 mU) diluted in 50 mM Tris/HCl pH 7.5, 0.1 mM EGTA, 1 mg/ml BSA, 0.1% β-mercaptoethanol is assayed against substrate peptide […] in an incubation containing 50 mM Tris/HCl pH 7.5, 0.1 mM EGTA, 0.5 mM CaCl2, 0.3 μM calmodulin, 0.1% β-mereaptoethanol, 300 μM substrate peptide, 10 mM magnesium acetate and 0.05 mM [^33P-γ-ATP] (500-1000 cpm/pmole). EF2K (5-20 mU) diluted in 50 mM Hepes pH 6.6, 0.1% β-mercaptoethanol, 1 mg/ml BSA is assayed against a substrate peptide […] in an incubation containing 50 mM Hepes pH 6.6, 0.2 mM CaCl2, 0.3 μM Calmodulin, 0.05% b-mercaptoethanol, 300 μM substrate peptide, 10 mM magnesium acetate and 0.05 mM [^33P-γ-ATP] (500-1000 cpm/pmole).

PRK2 = PRK2 (Homo sapiens, UniProt Q16513); experiment: PRK2 33P kinase assay; settings: read-out: PRK2 activity as percentage of control without inhibitor
Procedure: as §1, §2, §3, §4

CSK = CSK (Homo sapiens, UniProt P41240); experiment: CSK 33P kinase assay; settings: read-out: CSK activity as percentage of control without inhibitor
Procedure: as §1, §3

PRK2, sequence (Q16513 whole entry, species assumed): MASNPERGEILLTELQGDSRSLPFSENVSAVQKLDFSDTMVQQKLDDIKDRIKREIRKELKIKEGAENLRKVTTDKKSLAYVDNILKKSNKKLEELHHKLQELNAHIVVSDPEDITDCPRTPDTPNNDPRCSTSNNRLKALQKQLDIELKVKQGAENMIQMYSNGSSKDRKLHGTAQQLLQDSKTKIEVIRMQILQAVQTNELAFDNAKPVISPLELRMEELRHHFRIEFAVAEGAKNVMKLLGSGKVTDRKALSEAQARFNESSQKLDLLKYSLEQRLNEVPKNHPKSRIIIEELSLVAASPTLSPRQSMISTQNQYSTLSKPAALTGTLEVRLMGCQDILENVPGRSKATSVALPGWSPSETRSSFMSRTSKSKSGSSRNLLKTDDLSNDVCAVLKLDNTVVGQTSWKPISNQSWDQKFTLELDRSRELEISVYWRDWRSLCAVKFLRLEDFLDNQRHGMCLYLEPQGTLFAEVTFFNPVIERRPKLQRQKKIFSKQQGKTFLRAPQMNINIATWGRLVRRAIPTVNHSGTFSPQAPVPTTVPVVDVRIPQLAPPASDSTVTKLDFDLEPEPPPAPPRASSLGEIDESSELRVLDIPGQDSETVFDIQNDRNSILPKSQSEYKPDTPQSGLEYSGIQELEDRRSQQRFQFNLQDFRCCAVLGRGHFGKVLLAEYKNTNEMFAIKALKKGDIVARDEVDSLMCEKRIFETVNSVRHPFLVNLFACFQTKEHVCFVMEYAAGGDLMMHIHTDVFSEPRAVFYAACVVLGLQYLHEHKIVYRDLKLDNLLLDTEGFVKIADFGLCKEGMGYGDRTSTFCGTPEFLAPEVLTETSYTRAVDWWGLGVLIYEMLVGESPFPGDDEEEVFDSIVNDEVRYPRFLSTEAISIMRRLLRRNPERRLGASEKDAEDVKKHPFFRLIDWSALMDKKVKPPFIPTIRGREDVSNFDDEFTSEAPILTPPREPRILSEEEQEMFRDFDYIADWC
CSK, sequence (P41240 whole entry, species assumed): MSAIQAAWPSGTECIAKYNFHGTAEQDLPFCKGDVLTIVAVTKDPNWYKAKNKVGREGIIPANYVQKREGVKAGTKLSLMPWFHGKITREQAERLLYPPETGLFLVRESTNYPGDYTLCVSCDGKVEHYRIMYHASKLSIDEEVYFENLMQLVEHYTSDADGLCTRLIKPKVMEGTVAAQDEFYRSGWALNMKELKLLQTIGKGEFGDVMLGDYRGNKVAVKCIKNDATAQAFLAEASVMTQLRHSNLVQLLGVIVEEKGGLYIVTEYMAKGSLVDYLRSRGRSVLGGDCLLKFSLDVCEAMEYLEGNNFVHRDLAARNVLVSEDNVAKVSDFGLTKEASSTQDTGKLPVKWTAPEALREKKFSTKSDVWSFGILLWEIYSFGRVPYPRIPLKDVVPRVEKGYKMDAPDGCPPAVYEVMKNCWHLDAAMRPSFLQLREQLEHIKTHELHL
PIM2, sequence (Q9P1W9 whole entry, species assumed): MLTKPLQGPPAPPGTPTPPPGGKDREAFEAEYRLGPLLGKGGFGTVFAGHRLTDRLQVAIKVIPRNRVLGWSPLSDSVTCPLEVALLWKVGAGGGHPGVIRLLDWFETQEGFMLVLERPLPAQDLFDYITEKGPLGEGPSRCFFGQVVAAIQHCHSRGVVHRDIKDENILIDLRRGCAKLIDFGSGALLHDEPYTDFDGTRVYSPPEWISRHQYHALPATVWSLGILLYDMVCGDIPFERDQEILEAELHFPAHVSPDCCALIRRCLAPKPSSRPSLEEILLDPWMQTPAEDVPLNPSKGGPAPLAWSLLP

COc1ccc2c3c([nH]c2c1)C(C)=NCC3 [Harmaline]
remaining activity at 1 µM (SGK; inhibitor 1 μM): 14% | remaining activity at 10 µM (SGK; inhibitor 10 μM): 84% | remaining activity at 1 µM (PIM2; inhibitor 1 μM): 86% | remaining activity at 10 µM (PIM2; inhibitor 10 μM): 101% | remaining activity at 1 µM (PRK2; inhibitor 1 μM): 97% | remaining activity at 10 µM (PRK2; inhibitor 10 μM): 83% | remaining activity at 1 µM (CSK): 64% | remaining activity at 10 µM (CSK): 90%

CC1=NCCc2c1[nH]c1cc(O)ccc21 [Harmalol]
remaining activity at 1 µM (SGK; inhibitor 1 μM): 62% | remaining activity at 10 µM (SGK; inhibitor 10 μM): 45% | remaining activity at 1 µM (PIM2; inhibitor 1 μM): 90% | remaining activity at 10 µM (PIM2; inhibitor 10 μM): 57% | remaining activity at 1 µM (PRK2; inhibitor 1 μM): 86% | remaining activity at 10 µM (PRK2; inhibitor 10 μM): 54% | remaining activity at 1 µM (CSK; inhibitor 1 μM): 110% | remaining activity at 10 µM (CSK; inhibitor 10 μM): 92%

COc1ccc2c(c1)[nH]c1c(C)nccc12 [Harmine]
remaining activity at 1 µM (SGK): 66% | remaining activity at 10 µM (SGK): 62% | remaining activity at 1 µM (PIM2): 77% | remaining activity at 10 µM (PIM2): 41% | remaining activity at 1 µM (PRK2): 82% | remaining activity at 10 µM (PRK2): 45% | remaining activity at 1 µM (CSK): 92% | remaining activity at 10 µM (CSK): 101%
